Source: US7638525B2 (Janssen Pharmaceutica N.V., priority 2004, dated 2009)

Test system: T47D human breast cancer cells
Assay: In vitro test: alkaline phosphatase assay in T47D human breast cancer cells
Type: cell-based
Conditions: alkaline phosphatase luminescence after 24 h with compound, test concentration not given
Method: T47D human breast cancer cells are grown in RPMI medium without phenol red (Invitrogen) containing 10% (v/v) heat-inactivated fetal bovine serum (FBS; Hyclone), 1% (v/v) penicillin-streptomycin (Invitrogen), 1% (w/v) glutamine (Invitrogen), and […] (Sigma). Incubation conditions are 37° C. in a humidified 5% (v/v) carbon dioxide environment. For assay, the cells are plated in 96-well tissue culture plates at 10,000 cells per well in assay medium [RPMI medium without phenol red (Invitrogen) containing 5% (v/v) charcoal-treated FBS (Hyclone) and 1% (v/v) penicillin-streptomycin (Invitrogen)]. Two days later, the medium is decanted and the compounds are added in a final concentration of 0.1% (v/v) dimethyl sulfoxide in fresh assay medium. Twenty-four hours later, an alkaline phosphatase assay is performed using a SEAP kit (BD Biosciences Clontech, Palo Alto, Calif.). Briefly, the medium is decanted and the cells are fixed for 30 minutes at room temperature with 5% (v/v) formalin (Sigma). The cells are washed once with room temperature Hank's buffered saline solution (Invitrogen). Equal volumes (0.05 mL) of 1× Dilution Buffer, Assay Buffer and 1:20 substrate/enhancer mixture are added. After 1-hour incubation at room temperature in the dark, the lysate is transferred to a white 96-well plate (Dynex) and luminescence is read using a LuminoSkan Ascent (Thermo Electron, Woburn, Mass.).

SMILES | % inhibition
O=C(c1ccc(F)cc1)c1cc(-c2ccncc2)c(N2CCC3(CC2)OCCO3)s1 [Example 2, [5-(1,4-Dioxa-8-aza-spiro[4.5]-dec-8-yl)-4-pyridin-4-yl-thiophen-2-yl]-(4-fluoro-phenyl)-methanone] | 15%
O=C(c1ccc([N+](=O)[O-])cc1)c1cc(-c2ccncc2)c(N2CCC3(CC2)OCCO3)s1 [Example 4, [5-(1 4-Dioxa-8-aza-spiro[4.5]-dec-8-yl)-4-pyridin-4-yl-thiophen-2-yl]-(4-nitro-phenyl)-methanone] | 0%
COc1ccccc1C(=O)c1cc(-c2ccncc2)c(N2CCC(=O)CC2)s1 [Example 15, 1-[5-(2-Methoxy-benzoyl)-3-pyridin-4-yl-thiophen-2-yl]-piperidin-4-one] | 39%
COc1cccc(C(=O)c2cc(-c3ccncc3)c(N3CCC4(CC3)OCCO4)s2)c1 [Example 7, [5-(1,4-Dioxa-8-aza-spiro[4.5]-dec-8-yl)-4-pyridin-4-yl-thiophen-2-yl-](3-methoxy-phenyl)-methanone] | 42%
COc1cccc(C(=O)c2cc(-c3ccncc3)c(N3CCC(=O)CC3)s2)c1 [Example 12, 1-[5-(3-Methoxy-benzoyl)-3-pyridin-4-yl-thiophen-2-yl]-piperidin-4-one] | 24%
CCC(=O)c1cc(-c2ccncc2)c(N2CCC(=O)CC2)s1 [Example 18, 1-(5-Propionyl-3-pyridin-4-yl-thiophen-2-yl)-piperidin-4-one] | 26%
O=C1CCN(c2sc(C(=O)c3cccc(Br)c3)cc2-c2ccncc2)CC1 [Example 20, 1-[5-(3-Bromo-benzoyl)-3-pyridin-4-yl-thiophen-2-yl]-piperidin-4-one] | 23%
O=C1CCN(c2sc(C(=O)c3cc(C(F)(F)F)cc(C(F)(F)F)c3)cc2-c2ccncc2)CC1 [Example 14, 1-[5-(3,5-Bis-trifluoromethyl-benzoyl)-3-pyridin-4-yl-thiophen-2-yl]-piperidin-4-one] | 57%
O=C(c1ccc(Cl)c(Cl)c1)c1cc(-c2ccncc2)c(N2CCC3(CC2)OCCO3)s1 [Example 1, (3,4-Dichloro-phenyl)-[5-(1,4-dioxa-8-aza-spiro[4.5]-dec-8-yl)-4-pyridin-4-yl-thiophen-2-yl]-methanon] | 6%
CCC(=O)c1cc(-c2ccncc2)c(N2CCC3(CC2)OCCO3)s1 [Example 5, 1-[5-(1,4-Dioxa-8-aza-spiro[4.5]-dec-8-yl)-4-pyridin-4-yl-thiophen-2-yl]-1-one] | 0%
O=C(c1cc(C(F)(F)F)cc(C(F)(F)F)c1)c1cc(-c2ccncc2)c(N2CCC3(CC2)OCCO3)s1 [Example 8, (3,5-Bis-trifluoromethyl-phenyl)-[5-(1 4-dioxa-8-aza-spiro[4.5]-dec-8-yl)-4-pyridin-4-yl-thiophen-2-yl]-methanone] | 0%
O=C1CCN(c2sc(C(=O)c3ccc(Cl)cc3)cc2-c2ccncc2)CC1 [Example 16, 1-[5-(4-Chloro-benzoyl)-3-pyridin-4-yl-thiophen-2-yl]-piperidin-4-one] | 30%
O=C(c1cccc(Br)c1)c1cc(-c2ccncc2)c(N2CCC3(CC2)OCCO3)s1 [Example 10, (3-Bromo-phenyl)-[5-(1,4-dioxa-8-aza-spiro[4.5]-dec-8-yl)-4-pyridin-4-yl-thiophen-2-yl]-methanone] | 42%
COc1ccccc1C(=O)c1cc(-c2ccncc2)c(N2CCC3(CC2)OCCO3)s1 [Example 9, [5-(1,4-Dioxa-8-aza-spiro[4.5]-dec-8-yl)-4-pyridin-4-yl-thiophen-2-yl]-(2-methoxy-phenyl)-methanone] | 30%
O=C1CCN(c2sc(C(=O)c3ccc([N+](=O)[O-])cc3)cc2-c2ccncc2)CC1 [Example 17, 1-[5-(4-Nitro-benzoyl)-3-pyridin-4-yl-thiophen-2-yl]-piperidi n-4-one] | 30%
O=C(c1ccccc1)c1cc(-c2ccncc2)c(N2CCC3(CC2)OCCO3)s1 [Example 6, [5-(1,4-Dioxa-8-aza-spiro[4.5]-dec-8-yl)-4-pyridin-4-yl-thiophen-2-yl]-phenyl-methanone] | 34%
O=C1CCN(c2sc(C(=O)c3ccc(F)cc3)cc2-c2ccncc2)CC1 [Example 13, 1-[5-(4-Fluoro-benzoyl)-3-pyridin-4-yl-thiophen-2-yl]-piperidin-4-one] | 46%
O=C1CCN(c2sc(C(=O)c3ccccc3)cc2-c2ccncc2)CC1 [Example 11, 1-(5-Benzoyl-3-pyridin-4-yl-thiophen-2-yl)-piperidin-4-one] | 35%
O=C(c1ccc(Cl)cc1)c1cc(-c2ccncc2)c(N2CCC3(CC2)OCCO3)s1 [Example 3, (4-Chloro-phenyl)-[5-(1 4-dioxa-8-aza-spiro[4.5]-dec-8-yl)-4-pyridin-4-yl-thiophen-2-yl]-methanone] | 27%
O=C1CCN(c2sc(C(=O)c3cccc([N+](=O)[O-])c3)cc2-c2ccncc2)CC1 [Example 19] | 29%
